Source: patent US9675576B2, “Polyenolic zinc-binding agents (pezbins) actively promote inactivation of cancer stem cells and potentiate cytotoxic anti-tumor drug substances” (The Research Foundation for The State University of New York, priority 2012, dated 2017)

Tests used:
[1] = system: prostate CD133+ cells (PPT2 and PC3MM2); assay: MTT cytotoxicity assay, results stated for prostate CD133+ cells without split by line; assay type: cell-based, human; conditions: for concentration dependence of effect on prostate CD133+ cells: single agent
Method: (§1) The CSC-specific cytotoxic effects were studied in two different settings both of which are known to maintain/promote sternness phenotype: adherent to type I collagen cultures and 3D cultures of floating spheroids (Baretton, G. B. 1994; Miyoshi, Y. 2000; Koivisto, P. 1995). The CD133^high/CD44^high cells (1×10^3 cells/well) isolated either from PPT2 or PC3MM2 cell lines were seeded onto the type I collagen-coated 96-well plates, cultured in the MSCGM for 2 days, and the treatment was initiated upon 90% confluency. Paclitaxel, SBT-1214 and CMC2.24 were dissolved in sterile DMSO and then serially diluted in MSCGM. For testing the SBT-1214/CMC2.24 combination efficacy, the regular MSCGM was replaced with treatment medium containing SBT-1214 or Ptx at selected concentration range (from 10 nM to 10 μM) with 30 μM CMC2.24. Treatment medium was removed 24, 48 or 72 hr later, followed by return to the MSCGM. Cell death was analyzed on adherent type I collagen cell cultures with the MTT assay [MTT=3-(4,5-dimethylthiazol-2-yl)-2,5-diphenyltetrazolium bromide] as recommended by manufacturer (Invitrogen). Spheroids were cultured and treated on ULA plates.
The dose-response cytotoxicity of SBT-1214, CMC2.24/and their combination was evaluated by standard MTT assay (all of the in vitro experiments were repeated at least three times and each measurement for the MMT assay was performed in 4 repeats). The dose-response points were plotted as a percentage of the untreated control, the absorbance of which was considered as 100%. Data were expressed as means±SD for each drug concentration. The in vivo responses to drug treatment were evaluated as changes in tumor volume of drug-treated versus untreated control xenografts induced by particular type of cells. Data were expressed as means±SD for control and drug treated tumors. The statistical significance of differences was determined using Student's t-test. The parameters used were the two-tailed distribution and the paired test. P<0.05 was considered statistically significant.

c-Myc, Sox-2 and Oct4 = assay: Western blot of key transcription factors; assay type: cell-based, human
Method: (§2) Cells were lysed using Active Motif Nuclear Co-ip kit according to manufacturer's protocol. 20 μg of enriched nuclear and cytoplasmic extracts was subjected to electrophoresis in 10% polyacrylamide gel. The proteins were then transferred to a nitrocellulose membrane and developed with appropriate antibodies.

[2] = system: PPT2 and PC3MM2 cell lines; assay: FACS analysis of CD133 expression after drug treatment; assay type: cell-based, human; conditions: CMC2.24 treatment, FIG. 11C
From the text: To ensure more reliable isolation of CSCs, cells were labeled with one or several markers conjugated with different fluorescent dyes, including anti-human CD133/2-APC (clone 293C3; Miltenyi Biotec, CA, USA); CD166-PE (clone 105902; R&D Systems, MN, USA); CD44-FITC (clone F10-44-2), CD44-PE (clone F10-44-2; Invitrogen/Biosources, USA); CD44v6-FITC (clone 2F10; R&D Systems, USA), EpCAM-FITC (Biosource, CA, USA), Pan-Keratin (C11)-Alexa Fluor® 488 (Cell Signaling) and all the isotype controls (Chemicon). Antibodies were diluted in buffer containing 5% BSA, 1 mM EDTA and 15-20% blocking reagent (Miltenyi Biotec) to inhibit unspecific binding to non-target cells. After 15 min incubation at 4° C., stained cells were sorted and analyzed with multiparametric flow cytometer BD FACSAria (Becton Dickinson, CA). Alternatively, dissociated cells were centrifuged at 950 g for 5 min at 4° C., rinsed with sterile MACS buffer (Miltenyi Biotec, CA) and labeled with CD133 Abs directly or indirectly conjugated with ferromagnetic beads (Miltenyi Biotec, CA) as recommended by manufacturer.
as §1, with “For testing the SBT-1214/CMC2.24 combination efficacy, the regular MSCGM was replaced with treatment medium containing SBT-1214 or Ptx at selected concentration range (from 10 nM to 10 μM) with 30 μM CMC2.24. Treatment medium was removed 24, 48 or 72 hr later, followed by return to the MSCGM.” left out, “Spheroids were cultured and treated on ULA plates.” left out

[3] = system: CSC-relevant transcription factors in colon cancer HCT116 CD133+ and prostate xPT2 CD133+ cells; assay: PCR array of stem cell-related transcription factors, colon and prostate CD133+ cells; assay type: cell-based, human; conditions: CMC2.24 as stated in Example 2
Method: Stem cell-specific gene expression profiles were studied with the PCR Array assay (SABiosciences, CA) in accordance with the manufacturer's recommendations. Briefly, total RNA was isolated from different cell populations (cancer stem cells expressing high levels of the CD133 and CD44, or whole floating spheroids that are enriched with CSCs) using PARIS kit (Ambion). Up to 1 μg of total RNA was treated with DNase and cDNA was prepared using RT^2 First Strand kit. For each analysis, pairs of the test and control cDNA samples were mixed with RT^2 qPCR Master mix and distributed across the PCR array 96-well plates, each of which contained 84 stem cell-related probes and control housekeeping genes. After cycling with real-time PCR (Opticon MJ Research or ABI 7300, Applied Biosystems), obtained amplification data (fold-changes in Ct values of all the genes) was analyzed with SABiosciences software.

[4] = in vivo; cited from earlier work
p53 and p21 = assay: Western blot of pro-apoptotic proteins; assay type: cell-based, human; conditions: CD133+ and bulk PPT2 cells, previously not expressed
Method: as §2

SMILES | concentration dependence of effect on prostate CD133+ cells [1] | key TF proteins (c-Myc, Sox-2 and Oct4; both nuclear and cytoplasmic fractions) | c-Myc and Sox2 expression (c-Myc, Sox-2 and Oct4; nuclear extracts of CD133+ and bulk PPT2 cells) | ratios of cells with highest expression of CD133 [2] | inhibition of CSC-relevant transcription factors [3] | effect on cells, higher doses ([1]; 10-40 μM, 72 hr) | effect on cell proliferation, low concentrations ([1]; up to 10 μM, 72 hr) | systemic toxicity [4] | expression of p21 and p53 (p53 and p21)
COc1cc(/C=C/C(=O)CC(=O)/C=C/c2ccc(O)c(OC)c2)ccc1O [curcumin, diferuloylmethane] | biphasic effects | – | – | – | – | – | – | – | –
O=C(/C=C/c1ccc(O)cc1)C(C(=O)/C=C/c1ccc(O)cc1)C(=O)Nc1ccccc1 [CMC2.24] | biphasic effects | dramatic inhibition | moderate down-regulation | did not induce an increase | profound inhibition of the majority | increasingly cytotoxic | stimulated cell proliferation | no systemic toxicity | induced expression
